Laboratory results published in PubChem BioAssay AID192 (DTP/NCI, 2004).
“And” between values parts separate entries of the source, which are not always exact repeats. Identical values can stand only once. Inconclusive results and toxic doses are left out.

Tested on: BDF1 mice, B16 melanoma ip, median survival T/C
Test: NCI In Vivo Anticancer Drug Screen. Data for tumor model B16 Melanoma (intraperitoneal) in B6D2F1 (BDF1) mice
Conditions: endpoint: median survival time, higher = longer survival
Procedure, shortened: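 In this screen, activity was judged from survival or tumor size in treated versus vehicle-treated tumor-bearing mice, reported as T/C.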

C=CCNCCN1CCN(CCCN2c3ccccc3Sc3ccc(C(F)(F)F)cc32)CC1
T/C (dose: 6.25 mg/kg/injection, schedule: Q01DX009 (ip), vehicle: saline): 105 % of control
T/C (dose: 9.37 mg/kg/injection, schedule: Q04DX003 (ip), vehicle: saline): 100 % of control
T/C (dose: 12.5 mg/kg/injection, schedule: Q01DX009 (ip), vehicle: saline): 110 % of control
T/C (dose: 18.75 mg/kg/injection, schedule: Q04DX003 (ip), vehicle: saline): 97 % of control
T/C (dose: 55.0 mg/kg/injection, schedule: Q04DX003 (ip), vehicle: saline): 91 % of control

CSc1cc(=O)n2c3ccccc3c3ccnc1c32
T/C (dose: 0.63 mg/kg/injection, schedule: Q01DX009 (ip), vehicle: saline with Tween-80): 104 % of control
T/C (dose: 1.25 mg/kg/injection, schedule: Q01DX009 (ip), vehicle: saline with Tween-80): 110 % of control
T/C (dose: 2.5 mg/kg/injection, schedule: Q01DX009 (ip), vehicle: saline with Tween-80): 101 % of control
T/C (dose: 5.0 mg/kg/injection, schedule: Q01DX009 (ip), vehicle: saline with Tween-80): 108 % of control

CC1=CC(=O)[C@@H](O)[C@]2(C)[C@H]3[C@@]4(O)OC[C@]35[C@H]([C@@H](C)[C@H]4O)[C@@H](OC(=O)c3ccccc3)C(=O)O[C@@H]5C[C@@H]12
T/C (dose: 0.25 mg/kg/injection, schedule: Q01DX009 (ip), vehicle: saline with Tween-80): 118 % of control
T/C (dose: 2.0 mg/kg/injection, schedule: Q01DX009 (ip), vehicle: saline with Tween-80): 171 % of control

CCC/C=C/C=C/C1CC(O)C(O)C(=O)C1C=O (stereo not drawn)
T/C (dose: 1.6 mg/kg/injection, schedule: Q01DX009 (ip), vehicle: saline with Tween-80): 105 % of control
T/C (dose: 3.12 mg/kg/injection, schedule: Q01DX009 (ip), vehicle: saline with Tween-80): 104 % of control
T/C (dose: 6.25 mg/kg/injection, schedule: Q01DX009 (ip), vehicle: saline with Tween-80): 98 % of control
T/C (dose: 12.5 mg/kg/injection, schedule: Q01DX009 (ip), vehicle: saline with Tween-80): 98 % of control and 100 % of control

C=C1C(=O)OCC2C(C(=O)O)=CC3C(C)C(C)=CC123 (stereo not drawn)
T/C (dose: 2.5 mg/kg/injection, schedule: Q01DX009 (ip), vehicle: Klucel (hydroxypropylcellulose) (HPC)): 106 % of control
T/C (dose: 3.12 mg/kg/injection, schedule: Q01DX009 (ip), vehicle: other): 94 % of control
T/C (dose: 5.0 mg/kg/injection, schedule: Q01DX009 (ip), vehicle: Klucel (hydroxypropylcellulose) (HPC)): 98 % of control
T/C (dose: 6.25 mg/kg/injection, schedule: Q01DX009 (ip), vehicle: other): 101 % of control
T/C (dose: 10.0 mg/kg/injection, schedule: Q01DX009 (ip), vehicle: Klucel (hydroxypropylcellulose) (HPC)): 96 % of control
T/C (dose: 12.5 mg/kg/injection, schedule: Q01DX009 (ip), vehicle: other): 101 % of control
T/C (dose: 20.0 mg/kg/injection, schedule: Q01DX009 (ip), vehicle: Klucel (hydroxypropylcellulose) (HPC)): 98 % of control
T/C (dose: 25.0 mg/kg/injection, schedule: Q01DX009 (ip), vehicle: other): 111 % of control
T/C (dose: 40.0 mg/kg/injection, schedule: Q01DX009 (ip), vehicle: Klucel (hydroxypropylcellulose) (HPC)): 105 % of control

CC#CS(=O)(=O)C(C)(C)C
T/C (dose: 50.0 mg/kg/injection, schedule: Q04DX003 (ip), vehicle: saline): 104 % of control
T/C (dose: 100.0 mg/kg/injection, schedule: Q04DX003 (ip), vehicle: saline): 106 % of control
T/C (dose: 200.0 mg/kg/injection, schedule: Q04DX003 (ip), vehicle: saline): 105 % of control

NC(=S)N/N=C/c1ccc2c(c1)OCO2
T/C (dose: 50.0 mg/kg/injection, schedule: Q04DX003 (ip), vehicle: saline with Tween-80): 106 % of control
T/C (dose: 100.0 mg/kg/injection, schedule: Q04DX003 (ip), vehicle: saline with Tween-80): 106 % of control
T/C (dose: 200.0 mg/kg/injection, schedule: Q04DX003 (ip), vehicle: saline with Tween-80): 110 % of control

CN(C)c1ccc(C(N)=O)cn1
T/C (dose: 1.5 mg/kg/injection, schedule: Q01DX009 (ip), vehicle: Klucel (hydroxypropylcellulose) (HPC)): 124 % of control

Cc1ccc(C(=O)/C=C/c2ccccc2O)cc1
T/C (dose: 37.5 mg/kg/injection, schedule: Q01DX009 (ip), vehicle: Klucel (hydroxypropylcellulose) (HPC)): 103 % of control
T/C (dose: 75.0 mg/kg/injection, schedule: Q01DX009 (ip), vehicle: Klucel (hydroxypropylcellulose) (HPC)): 90 % of control
T/C (dose: 150.0 mg/kg/injection, schedule: Q01DX009 (ip), vehicle: Klucel (hydroxypropylcellulose) (HPC)): 98 % of control
T/C (dose: 300.0 mg/kg/injection, schedule: Q01DX009 (ip), vehicle: Klucel (hydroxypropylcellulose) (HPC)): 88 % of control

CCCCCCCCCC(=O)CC
T/C (dose: 50.0 mg/kg/injection, schedule: Q01DX009 (ip), vehicle: Klucel (hydroxypropylcellulose) (HPC)): 100 % of control
T/C (dose: 100.0 mg/kg/injection, schedule: Q01DX009 (ip), vehicle: Klucel (hydroxypropylcellulose) (HPC)): 99 % of control
T/C (dose: 200.0 mg/kg/injection, schedule: Q01DX009 (ip), vehicle: Klucel (hydroxypropylcellulose) (HPC)): 100 % of control
